The values that follow come from ChEMBL document CHEMBL1150759, “[Cytotoxic and antibacterial substances from the ascidian Aplidium antillense]” (J Nat Prod, 1988).

SMILES strings stand for the structures. Values after ≈ are worked out from the molar mass of the structure shown.

As usually defined, the MIC is the least concentration at which growth counts as inhibited. As usually defined, the IC50 is the concentration at which inhibition is half-maximal. Read a low IC50 as greater potency.

Experiment [1] relates to Staphylococcus aureus. The experiment is described as follows: Antimicrobial activity against methicillin-sensitive Staphylococcus aureus. In kind it is functional.
The subject of experiment [2] is Staphylococcus aureus. Description: Antimicrobial activity against methicillin-resistant Staphylococcus aureus. It counts as functional.
In the next experiment the test system is KB. Description: Cytotoxicity against human KB cells. It counts as functional, cell-based.
The test system of a further experiment is P388. Description: Cytotoxicity against mouse P388 cells. It counts as functional, cell-based.
For the next experiment, the system named is Enterococcus faecalis. The experiment is described as follows: Antimicrobial activity against Streptococcus faecalis. In kind it is functional.
A further experiment relates to Pseudomonas aeruginosa. Description: Antimicrobial activity against Pseudomonas aeruginosa. In kind it is functional.
A further experiment concerns Escherichia coli. The experiment is described as follows: Antimicrobial activity against Escherichia coli. It counts as functional.
In a further experiment the test system is Klebsiella pneumoniae. Description: Antimicrobial activity against Klebsiella pneumoniae. In kind it is functional.
The next experiment concerns Proteus mirabilis. The experiment is described as follows: Antimicrobial activity against Proteus mirabilis. It counts as functional.
The next experiment relates to Morganella morganii. Description: Antimicrobial activity against Morganella morganii. It counts as functional.
In a further experiment the test system is Serratia marcescens. Description: Antimicrobial activity against Serratia marcescens. In kind it is functional.

Take `CC(C)=CCC/C(C)=C/Cc1cc(O)ccc1O` [GEROQUINOL]: the MBC/MIC ratio in the experiment on Staphylococcus aureus [1] was determined as 2; in the experiment with Staphylococcus aureus [2], 2; in the experiment with Enterococcus faecalis, 1. Also, the MIC was 64 µg/mL (≈ 260 µM) against Staphylococcus aureus [1]; 64 µg/mL (≈ 260 µM) against Staphylococcus aureus [2]; 64 µg/mL (≈ 260 µM) against Enterococcus faecalis; over 256 µg/mL in the experiment with Pseudomonas aeruginosa; over 256 µg/mL against Escherichia coli; over 256 µg/mL with Klebsiella pneumoniae. The MIC is over 256 µg/mL in the experiment with Proteus mirabilis, over 256 µg/mL in the experiment with Morganella morganii and 128 µg/mL (≈ 520 µM) against Serratia marcescens. Also, the 50% inhibitory concentration (IC50) in the experiment on KB was determined as 4.3 µg/mL (≈ 17.5 µM); with P388, 0.034 µg/mL (≈ 0.138 µM).

For `CC(C)=CCCC1(C)C=Cc2cc(O)ccc2O1` (stereo not drawn) [CORDIACHROMENE A], the MBC/MIC ratio in the experiment on Staphylococcus aureus [1] was determined as 2; with Staphylococcus aureus [2] it was 2; in the experiment on Enterococcus faecalis, 1. The MIC was 64 µg/mL (≈ 262 µM) in the experiment with Staphylococcus aureus [1]; 64 µg/mL (≈ 262 µM) with Staphylococcus aureus [2]; 64 µg/mL (≈ 262 µM) against Enterococcus faecalis; over 256 µg/mL against Pseudomonas aeruginosa; over 256 µg/mL with Escherichia coli; over 256 µg/mL against Klebsiella pneumoniae. In addition, the MIC in the experiment on Proteus mirabilis, in the experiment on Morganella morganii and in the experiment with Serratia marcescens was over 256 µg/mL each time. In addition, the IC50 is 36 µg/mL (≈ 147 µM) in the experiment with KB and 0.5 µg/mL (≈ 2.05 µM) with P388.
